Laboratory results reported in US20230202985A1, “Indoles, Indazoles, and Related Analogs for Inhibiting YAP/TAZ-TEAD” (THE KATHOLIEKE UNIVERSITEIT LEUVEN, priority 2021, published 2023).

Experiments:
Type in all cases: cell-based
[1] = test system: YAP/TAZ-TEAD transcription; assay: Reporter gene assay for measuring the inhibition of YAP/TAZ-TEAD transcription (TEAD-responsive element luciferase reporter in Hek293T cells); conditions: Homo sapiens, HEK-293T; Hek293T cells transfected with TEAD-responsive luciferase reporter, 24 hours incubation
Procedure: Hek293T cells are cultured in DMEM supplemented with 10% fetal bovine serum, Sodium pyruvate, Sodium bicarbonate, L-glutamine. The cells are harvested and transiently transfected with TEAD-responsive element luciferase reporter. Transfected cells are plated in 384-wells plate containing pre-diluted compounds. After 24 hours incubation at 37° C./5% CO2, assay plates were cooled down to RT and levelled to an equal volume per well, prior to the addition of 25 uL luciferase substrate SteadyLite (Perkin Elmer)/well. The plate was shaken for 10 min at 600 rpm, centrifuged for 1 min at 500 rpm and measured with an Envision reader (PerkinElmer). The amount of relative light units produced by the TEAD reporter is used to calculated percent of inhibition.
The percent of reporter inhibition was calculated in the presence of a positive control inhibitor (100% inhibition) versus a condition with the presence of the vehicle basal activity of the reporter (0% inhibition). The ability of a test compound to inhibit this activity was determined as:
Percentage inhibition=[1−((RLU determined in the presence of vehicle−RLU determined for sample with test compound present) divided by (RLU determined in the presence of vehicle−RLU determined for sample with positive control inhibitor))]*100
The activities of example compounds tested are depicted in Table 6. The activity ranges A, B and C refer to IC50 values in the reporter gene assay as follows: “A”: IC50<1 μM; “B”: 1 μM≤IC50≤20 μM and “C”: IC50>20 μM; NT=not tested.

NCI-H226 = assay: Mesothelioma cell line proliferation assay (ATPlite), NCI-H226; conditions: Homo sapiens, 144 h; NCI-H226 cells, 6 days with compound, cell viability by ATPlite
Procedure: (§1) Mesothelioma cell lines, NCI-H226 and NCI-H2052 (all sourced from the ATCC cell culture collection) are plated in 96-well plates (Corning® 96 Well White Polystyrene Microplate clear flat bottom, white polystyrene (TC-Treated)), at 1500 cells/well in full medium (RPMI 1640 ATCC modification with L-glutamine, HEPES, Phenol Red, Sodium Pyruvate, High glucose, Low sodium bicarbonate and 10% fetal bovine serum). Cells are incubated overnight at 37° C. in an incubator with 5% CO2. Then compounds, dissolved in DMSO, are added in dose-response. Cells are incubated with compound dilutions for another 6 days at 37° C. in an incubator with 5% CO2. Cell viability is quantitated using the ATPlite kit (Perkin-Elmer) and the luminescence is read-out using an Envision instrument (Perkin-Elmer). The amount of relative light units produced using the ATPlite kit is used to calculated percent of inhibition.
(§2) The activities of some example compounds are depicted in Table 7. The activity ranges A, B and C refer to EC50 values in the mesothelioma cell line proliferation assay as described as follows: “A”: EC50<1 μM; “B”: 1 μM≤EC50≤10 μM and “C”: EC50>10 μM; NT: not tested.

NCI-H2052 = assay: Mesothelioma cell line proliferation assay (ATPlite), NCI-H2052; conditions: Homo sapiens, 144 h; NCI-H2052 cells, 6 days with compound, cell viability by ATPlite
Procedure: as §1, §2

SMILES	EC50 [1]	EC50 (NCI-H226)	EC50 (NCI-H2052)
C#CCOc1ccc2c(c1)c(CNS(C)(=O)=O)nn2-c1ccc(C(F)(F)F)cc1 [compound 65, N-[[5-prop-2-ynoxy-1-[4-(trifluoromethyl)phenyl]indazol-3-yl]methyl]methanesulfonamide]	> 20 µM	–	–
O=C(O)COc1cccc2c1cnn2-c1ccc(C(F)(F)F)cc1 [compound 69, 2-[1-[4-(trifluoromethyl)phenyl]indazol-4-yl]oxyacetic acid]	> 20 µM	–	–
CC(=O)NC1C(=O)N(c2ccc(C(F)(F)F)cc2)c2ccccc21 (stereo not drawn) [compound 34, N-(2-oxo-1-(4-(trifluoromethyl)phenyl)indolin-3-yl)acetamide]	> 20 µM	–	–
O=C(O)Cc1cn2cc(-c3ccccc3)cc(-c3cnn(Cc4cccnc4)c3)c2n1 [compound 36, 2-(6-phenyl-8-(1-(pyridin-3-ylmethyl)-1H-pyrazol-4-yl)imidazo[1,2-a]pyridin-2-yl)acetic acid]	> 20 µM	–	–
CS(=O)(=O)NCc1nn(-c2ccc(C(F)(F)F)cc2)c2ccc(OCc3cc[nH]n3)cc12 [compound 52, N-[[5-(1H-pyrazol-3-ylmethoxy)-1-[4-(trifluoromethyl)phenyl]indazol-3-yl]methyl]methanesulfonamide]	1 to 20 µM	–	–
CCC(=O)NCc1nn(-c2ccc(C(F)(F)F)cc2)c2ccc(Oc3cc(=O)[nH]c(=O)n3C)cc12 [compound 53, N-[[5-(3-methyl-2,6-dioxo-pyrimidin-4-yl)oxy-1-[4-(trifluoromethyl)phenyl]indazol-3-yl]methyl]propanamide]	> 20 µM	–	–
CS(=O)(=O)NCc1nn(-c2ccc(C(F)(F)F)cc2)c2ccc(OCc3ccccc3)cc12 [compound 56, N-[[5-benzyloxy-1-[4-(trifluoromethyl)phenyl]indazol-3-yl]methyl]methanesulfonamide]	1 to 20 µM	–	–
C=CC(=O)Nc1cn(-c2cccc(Cl)c2)c2ccccc12 [compound 25, N-(1-(3-chlorophenyl)-1H-indol-3-yl)acrylamide]	1 to 20 µM	–	–
CS(=O)(=O)NCc1nn(-c2ccc(OC(F)(F)F)cc2)c2ccccc12 [compound 6, N-((1-(4-(trifluoromethoxy)phenyl)-1H-indazol-3-yl)methyl)methanesulfonamide]	1 to 20 µM	–	–
C=CC(=O)Nc1cn(-c2ccccc2)c2ccccc12 [compound 22, N-(1-phenyl-1H-indol-3-yl)acrylamide]	1 to 20 µM	–	–
CS(=O)(=O)NCc1nn(-c2ccc(C(F)(F)F)cc2)c2ccc(OCC3CCOC3)cc12 (racemic) [compound 44, N-[[5-[[rac-tetrahydrofuran-3-yl]methoxy]-1-[4-(trifluoromethyl)phenyl]indazol-3-yl]methyl]methanesulfonamide]	1 to 20 µM	–	–
CCC(=O)NCc1nn(-c2ccc(C(F)(F)F)cc2)c2ccc(OCC3CC3)cc12 [compound 67, N-[[5-(cyclopropylmethoxy)-1-[4-(trifluoromethyl)phenyl]indazol-3-yl]methyl]propanamide]	> 20 µM	–	–

More lines, now with the values ahead:

EC50 [1]	EC50 (NCI-H226)	EC50 (NCI-H2052)	SMILES
< 1 µM	< 1 µM	< 1 µM	C=CC(=O)NCc1nn(-c2ccc(C(F)(F)F)cc2)c2cnccc12 [compound 59, N-[[1-[4-(trifluoromethyl)phenyl]pyrazolo[3,4-c]pyridin-3-yl]methyl]prop-2-enamide]
< 1 µM	< 1 µM	< 1 µM	C#CCOc1ccc2c(c1)c(CNC(=O)C=C)nn2-c1ccc(C(F)(F)F)cc1 [compound 63, N-[[5-prop-2-ynoxy-1-[4-(trifluoromethyl)phenyl]indazol-3-yl]methyl]prop-2-enamide]
< 1 µM	1 to 10 µM	< 1 µM	C=CC(=O)Nc1cn(-c2ccc(C(F)(F)F)cc2)c2ccccc12 [compound 20, N-(1-(4-(trifluoromethyl)phenyl)-1H-indol-3-yl)acrylamide]
< 1 µM	< 1 µM	< 1 µM	C=CC(=O)NCc1nn(-c2ccc(C(F)(F)F)cc2)c2ccc(OC[C@@H]3CCOC3)cc12 (single isomer, unassigned) [compound 48]
< 1 µM	< 1 µM	< 1 µM	C=CC(=O)NCc1nn(-c2ccc(C(F)(F)F)cc2)c2cc(OC3CC3)ccc12 [compound 50, N-[[6-(cyclopropoxy)-1-[4-(trifluoromethyl)phenyl]indazol-3-yl]methyl]prop-2-enamide]
< 1 µM	< 1 µM	1 to 10 µM	C=CC(=O)NCc1cc2ccccc2n1Cc1ccc(C(F)(F)F)cc1 [compound 31, N-((1-(4-(trifluoromethyl)benzyl)-1H-indol-2-yl)methyl)acrylamide]
< 1 µM	< 1 µM	< 1 µM	C=CC(=O)NCc1nn(C2CCC(F)(F)CC2)c2ccccc12 [compound 77, N-[[1-(4,4-difluorocyclohexyl)indazol-3-yl]methyl]prop-2-enamide]
< 1 µM	< 1 µM	< 1 µM	C=CC(=O)NCc1nn(-c2ccc(C(F)(F)F)cc2)c2ncccc12 [compound 19, N-((1-(4-(trifluoromethyl)phenyl)-1H-pyrazolo[3,4-b]pyridin-3-yl)methyl)acrylamide]
< 1 µM	< 1 µM	< 1 µM	C=CC(=O)NCc1nn(-c2ccc(C(F)(F)F)cc2)c2ccc(C(F)(F)F)cc12 [compound 71, N-[[5-(trifluoromethyl)-1-[4-(trifluoromethyl)phenyl]indazol-3-yl]methyl]prop-2-enamide]
< 1 µM	< 1 µM	< 1 µM	C=CC(=O)NCc1nn(-c2ccc(C(F)(F)F)cc2)c2cc(C(F)(F)F)ccc12 [compound 74, N-[[6-(trifluoromethyl)-1-[4-(trifluoromethyl)phenyl]indazol-3-yl]methyl]prop-2-enamide]
< 1 µM	< 1 µM	1 to 10 µM	CC(=O)Nc1cn(-c2ccc(C(F)(F)F)cc2)c2ccccc12 [compound 21, N-(1-(4-(trifluoromethyl)phenyl)-1H-indol-3-yl)acetamide]
< 1 µM	< 1 µM	< 1 µM	C=CC(=O)NCc1nn(-c2ccc(C(F)(F)F)cc2)c2ccc(OCc3cc[nH]n3)cc12 [compound 58, N-[[5-(1H-pyrazol-3-ylmethoxy)-1-[4-(trifluoromethyl)phenyl]indazol-3-yl]methyl]prop-2-enamide]
< 1 µM	< 1 µM	< 1 µM	C=CC(=O)NCc1nn(-c2ccc(C(F)(F)F)cc2)c2cccnc12 [compound 40, N-((1-(4-(trifluoromethyl)phenyl)-1H-pyrazolo[4,3-b]pyridin-3-yl)methyl)acrylamide]
1 to 20 µM	–	–	CCC(=O)NCc1nn(-c2ccc(C(F)(F)F)cc2)c2ccccc12 [compound 2, N-((1-(4-(trifluoromethyl)phenyl)-1H-indazol-3-yl)methyl)propionamide]
< 1 µM	–	–	O=C1NCCN1Cc1nn(-c2ccc(C(F)(F)F)cc2)c2ccccc12 [compound 17, 1-((1-(4-(trifluoromethyl)phenyl)-1H-indazol-3-yl)methyl)imidazoiidin-2-one]
< 1 µM	–	–	C=CC(=O)NCc1nn(-c2ccc(C(F)(F)F)cc2)c2ccncc12 [compound 41, N-((1-(4-(trifluoromethyl)phenyl)-1H-pyrazolo[4,3-c]pyridin-3-yl)methyl)acrylamide]
